Like-named read-outs stand apart in the source and are kept apart here.

Consider 26 compounds from patent US11590116B2 (THERAVANCE BIOPHARMA R&D IP, LLC, priority 2019, dated 2023).

Assay [1] concerns the target T1, recombinant human ALK5 (TGF-βR1) protein (Homo sapiens, UniProt P36897).
T1 construct: purchased Life Technologies PR9075A
T1 sequence (P36897 34-503): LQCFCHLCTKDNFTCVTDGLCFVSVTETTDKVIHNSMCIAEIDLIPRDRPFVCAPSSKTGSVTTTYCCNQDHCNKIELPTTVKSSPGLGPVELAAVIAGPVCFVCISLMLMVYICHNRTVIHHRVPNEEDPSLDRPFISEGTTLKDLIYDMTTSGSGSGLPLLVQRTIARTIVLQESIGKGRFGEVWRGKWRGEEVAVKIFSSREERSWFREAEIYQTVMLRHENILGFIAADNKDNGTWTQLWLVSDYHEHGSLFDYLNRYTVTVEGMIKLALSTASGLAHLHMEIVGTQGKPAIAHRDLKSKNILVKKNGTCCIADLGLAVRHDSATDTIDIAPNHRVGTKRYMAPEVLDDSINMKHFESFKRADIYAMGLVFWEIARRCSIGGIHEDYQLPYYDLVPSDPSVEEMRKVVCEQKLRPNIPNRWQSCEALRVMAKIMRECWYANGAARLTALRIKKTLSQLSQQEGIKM
Briefly: Biochemical ALK5 (TGF-βR1) assay to measure pKi (LANCE Ultra ULight kinase assay). As to conditions: apparent pKi from pIC50 by Cheng-Prusoff, read-out: ALK5 pKi (converted). The gist of the method:
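Compounds (10 μM to 25 pM) preincubated 60 minutes at room temperature with enzyme, then reaction run 60 minutes at 37° C with ATP added as 125 μM (5× final). Stopped with EDTA plus Eu-anti-phospho-Topoisomerase 2-alpha (Thr1342) antibody, TR-FRET read at 665 nm; pIC50 converted to pKi via Cheng-Prusoff.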
A general note: TR-FRET usually uses a lanthanide donor and a delayed reading to cut background.

The test system of assay [2] is TGF-β-stimulated SMAD3 phosphorylation in BEAS-2B cells. Briefly: Cellular ALK5 potency assay, inhibition of TGF-β stimulated pSMAD3 formation in BEAS-2B cells. The format is cell-based. The conditions noted are these: Homo sapiens, read-out: BEAS2B pIC50 (converted). The essentials:
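Cells seeded overnight; rinse with supplemented HBSS; compound 1 h at 37 °C; TGF-β 10 ng/mL final, 30 min; lyse; AlphaLISA acceptor and detector beads 2 h apart, read next day. Potency expressed as pIC50.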

Setting [3] is: inhibition of TGF-β stimulated pSMAD3 formation, BEAS-2B cells.

Take `Cc1cccc(-c2n[nH]cc2-c2ccc3nccc(-c4nc(CO)co4)c3n2)n1` [Compound 852, [2-[6-[3-(6-methyl-2-pyridyl)-1H-pyrazol-4-yl]-1,5-naphthyridin-4-yl]oxazol-4-yl]methanol]: the Ki in assay [1] is 0.0398 to 0.316 nM. Also, in assay [2] (setting [3]), the IC50 was 25.1 to 158 nM.
As to `Cc1cccc(-c2n[nH]cc2-c2ccc3ncc(N4CC5CN(C(C)C)CC54)cc3n2)n1` (stereo not shown) [Compound 186, 7-(3-isopropyl-3,6-diazabicyclo[3.2.0]heptan-6-yl)-2-[3-(6-methyl-2-pyridyl)-1H-pyrazol-4-yl]-1,5-naphthyridine], the Ki in assay [1] was 0.398 to 3.16 nM. Moreover, in assay [2] (setting [3]), the IC50 is 25.1 to 158 nM.
On to `Cc1cccc(-c2[nH]cnc2-c2ccc3ncc(-c4nc(C(=O)OCCN5CCNCC5)cs4)cc3c2)n1` [Compound 1145, 2-piperazin-1-ylethyl 2-[6-[5-(6-methyl-2-pyridyl)-1H-imidazol-4-yl]-3-quinolyl]thiazole-4-carboxylate], for which, in assay [1], the Ki is 0.0398 to 0.316 nM. Besides, the IC50 in assay [2] (setting [3]) was 25.1 to 158 nM.
For `Cc1cccc(-c2[nH]cnc2-c2ccc3ncc(C4=CC[C@@H](NC(=O)[C@@H]5CCCN5)CC4)cc3c2)n1` [Compound 775, (2S)-N-[(1S)-4-[6-[5-(6-methyl-2-pyridyl)-1H-imidazol-4-yl]-3-quinolyl]cyclohex-3-en-1-yl]pyrrolidine-2-carboxamide], the Ki in assay [1] was 0.0398 to 0.316 nM. For the same compound, the IC50 in assay [2] (setting [3]) was 25.1 to 158 nM.
With `Cc1cccc(-c2n[nH]cc2-c2ccc3ncc(N4CCC(N)CC4)cc3n2)n1` [Compound 316, 1-[6-[3-(6-methyl-2-pyridyl)-1H-pyrazol-4-yl]-1,5-naphthyridin-3-yl]piperidin-4-amine], in assay [1], the Ki is less than 0.0316 nM. Further, the IC50 in assay [2] (setting [3]) was 25.1 to 158 nM.
Turning to `Cc1cccc(-c2nnn(Cc3ccccc3)c2-c2ccc3ncc(N4CCC(N5CCN(C)CC5)CC4)cc3n2)n1` [Compound 475, 2-[3-benzyl-5-(6-methyl-2-pyridyl)triazol-4-yl]-7-[4-(4-methylpiperazin-1-yl)-1-piperidyl]-1,5-naphthyridine], in assay [1], the Ki was 0.0398 to 0.316 nM. The IC50 in assay [2] (setting [3]) was 200 to 1260 nM.
Regarding `Cc1cccc(-c2[nH]cnc2-c2ccc3ncc(-c4ccc5c(c4)CNC5)cc3c2)n1` [Compound 699, 3-isoindolin-5-yl-6-[5-(6-methyl-2-pyridyl)-1H-imidazol-4-yl]quinoline], the Ki in assay [1] is less than 0.0316 nM. Moreover, the IC50 in assay [2] (setting [3]) was less than 20 nM.
In the same order, the values of `Cc1cccc(-c2n[nH]cc2-c2ccc3nccc(C(=O)NCCCCCCNC(=O)[C@@H]4CCCN4C(=O)CN4CCOCC4)c3n2)n1` (racemic) [Compound 809, 6-[3-(6-methyl-2-pyridyl)-1H-pyrazol-4-yl]-N-[6-[[rac-(2S)-1-(2-morpholinoacetyl)pyrrolidine-2-carbonyl]amino]hexyl]-1,5-naphthyridine-4-carboxamide] are 0.398 to 3.16 nM and 200 to 1260 nM.
For `Cc1cccc(-c2nn3c(c2-c2ccc4ncc(-c5cn[nH]c5)cc4n2)CNCC3)n1` [Compound 115, 2-(2-(6-Methylpyridin-2-yl)-4,5,6,7-tetrahydropyrazolo[1,5-a]pyrazin-3-yl)-7-(1H-pyrazol-4-yl)-1,5-naphthyridine] the same measures were 0.0398 to 0.316 nM and 25.1 to 158 nM.
As for `Cc1cccc(-c2n[nH]cc2-c2ccc3ncc(N4CCN(C(C)C)C(C)(C)C4)cc3n2)n1` [Compound 20, 7-(4-isopropyl-3,3-dimethyl-piperazin-1-yl)-2-[3-(6-methyl-2-pyridyl)-1H-pyrazol-4-yl]-1,5-naphthyridine], the Ki in assay [1] was 3.98 to 31.6 nM. For the same compound, the IC50 in assay [2] (setting [3]) is 200 to 1260 nM.
For `Cc1nc(-c2n[nH]cc2-c2ccc3ncc(-c4cnn(CC5CNC5)c4)cc3n2)ccc1F` [Compound 474, 7-[1-(azetidin-3-ylmethyl)pyrazol-4-yl]-2-[3-(5-fluoro-6-methyl-2-pyridyl)-1H-pyrazol-4-yl]-1,5-naphthyridine], in assay [1], the Ki is less than 0.0316 nM. Also, the IC50 in assay [2] (setting [3]) was 25.1 to 158 nM.
In the case of `CNCCn1cc(-c2cnc3ccc(-c4c[nH]nc4-c4ccc(F)c(C)n4)nc3c2)cn1` [Compound 477, 2-[4-[6-[3-(5-fluoro-6-methyl-2-pyridyl)-1H-pyrazol-4-yl]-1,5-naphthyridin-3-yl]pyrazol-1-yl]-N-methyl-ethanamine], the Ki in assay [1] is less than 0.0316 nM. Besides, the IC50 in assay [2] (setting [3]) was less than 20 nM.
As for `Cc1cccc(-c2[nH]cnc2-c2ccc3ncc(-c4nccc(C(=O)O)n4)cc3c2)n1` [Compound 1109, 2-[6-[5-(6-methyl-2-pyridyl)-1H-imidazol-4-yl]-3-quinolyl]pyrimidine-4-carboxylic acid], the Ki in assay [1] is 0.398 to 3.16 nM. The IC50 in assay [2] (setting [3]) was 1580 to 10000 nM.
Consider `Cc1cccc(-c2[nH]cnc2-c2ccc3ncc(-c4cnc(C(=O)OC5CCNCC5)nc4)cc3c2)n1` [Compound 1131, 4-piperidyl 5-[6-[5-(6-methyl-2-pyridyl)-1H-imidazol-4-yl]-3-quinolyl]pyrimidine-2-carboxylate], for which the Ki in assay [1] was 0.0398 to 0.316 nM. Further, the IC50 in assay [2] (setting [3]) was 200 to 1260 nM.
On to `Cc1cccc(-c2n[nH]cc2-c2ccc3ncc(-c4cn(CCN5CCOCC5)nn4)cc3n2)n1` [Compound 340, 4-[2-[4-[6-[3-(6-methyl-2-pyridyl)-1H-pyrazol-4-yl]-1,5-naphthyridin-3-yl]triazol-1-yl]ethyl]morpholine], for which the Ki in assay [1] was 0.0398 to 0.316 nM. Further, the IC50 in assay [2] (setting [3]) was 25.1 to 158 nM.
For `Cc1cccc(-c2[nH]cnc2-c2ccc3ncc(C4=CCC(NCc5ccccc5)CC4)cc3c2)n1` (stereo not shown) [Compound 252, N-benzyl-4-[6-[5-(6-methyl-2-pyridyl)-1H-imidazol-4-yl]-3-quinolyl]cyclohex-3-en-1-amine] the same measures were less than 0.0316 nM and 25.1 to 158 nM.
Consider `Cc1cccc(-c2n[nH]cc2-c2ccc3ncc(OCCN4CCN(C(C)C)CC4)cc3n2)n1` [Compound 241, 7-[2-(4-isopropylpiperazin-1-yl)ethoxy]-2-[3-(6-methyl-2-pyridyl)-1H-pyrazol-4-yl]-1,5-naphthyridine], for which the Ki in assay [1] was 0.0398 to 0.316 nM. The IC50 in assay [2] (setting [3]) is 200 to 1260 nM.
As for `Cc1cccc(-c2[nH]cnc2-c2ccc3ncc(NC4CCNCC4)cc3c2)n1` [Compound 187, 6-[5-(6-methyl-2-pyridyl)-1H-imidazol-4-yl]-N-(4-piperidyl)quinolin-3-amine], the Ki in assay [1] is 0.0398 to 0.316 nM. For the same compound, the IC50 in assay [2] (setting [3]) is 200 to 1260 nM.
As for `Cc1cccc(-c2[nH]cnc2-c2ccc3ncc(-c4nc(C(=O)O)cs4)cc3c2)n1` [Compound 797, 2-(6-(5-(6-methylpyridin-2-yl)-1H-imidazol-4-yl)quinolin-3-yl)thiazole-4-carboxylic acid], the Ki in assay [1] is 0.0398 to 0.316 nM. The IC50 in assay [2] (setting [3]) was 1580 to 10000 nM.
Consider `CNCCn1cc(-c2cnc3ccc(-c4nc[nH]c4-c4cccc(C)n4)cc3c2)cn1` [Compound 17, N-methyl-2-(4-(6-(5-(6-methylpyridin-2-yl)-1H-imidazol-4-yl)quinolin-3-yl)-1H-pyrazol-1-yl)ethan-1-amine], for which the Ki in assay [1] is less than 0.0316 nM. In addition, the IC50 in assay [2] (setting [3]) was 25.1 to 158 nM.
In the case of `Cc1cccc(-c2n[nH]cc2-c2ccc3ncc(N4CCC(N)C4)cc3n2)n1` (stereo not shown) [Compound 626, 1-[6-[3-(6-methyl-2-pyridyl)-1H-pyrazol-4-yl]-1,5-naphthyridin-3-yl]pyrrolidin-3-amine], the Ki in assay [1] is less than 0.0316 nM. Besides, the IC50 in assay [2] (setting [3]) was 25.1 to 158 nM.
In the case of `Cc1cccc(-c2[nH]ncc2-c2ccc3ncc(OC(=O)[C@H]4C[C@@H](N)C4)cc3c2)n1` [Compound 1032, 6-(5-(6-methylpyridin-2-yl)-1H-pyrazol-4-yl)quinolin-3-yl (1s,3s)-3-aminocyclobutane-1-carboxylate], the Ki in assay [1] was 0.0398 to 0.316 nM. Moreover, the IC50 in assay [2] (BEAS-2B) is less than 20 nM.
In the case of `Cc1cccc(-c2[nH]ncc2-c2ccc3ncc(C(=O)N(C)CCN4CCOCC4)cc3n2)n1` [Compound 182, N-methyl-6-[5-(6-methyl-2-pyridyl)-1H-pyrazol-4-yl]-N-(2-morpholinoethyl)-1,5-naphthyridine-3-carboxamide], the Ki in assay [1] was 3.98 to 31.6 nM. In assay [2] (setting [3]), the IC50 is 200 to 1260 nM.
For `Cc1cccc(-c2nc3ccccn3c2-c2ccc3ncc(-c4cn[nH]c4)cc3c2)n1` [Compound 592, 6-[2-(6-methyl-2-pyridyl)imidazo[1,2-a]pyridin-3-yl]-3-(1H-pyrazol-4-yl)quinoline] the same measures were less than 0.0316 nM and less than 20 nM.
For `CCOc1nc(-c2ccc3ncc(Br)cc3c2)c(-c2cccc(C)n2)[nH]1` [Compound 1185, 3-bromo-6-[2-ethoxy-5-(6-methyl-2-pyridyl)-1H-imidazol-4-yl]quinoline] the same measures were 0.398 to 3.16 nM and 25.1 to 158 nM.
`Cc1cccc(-c2[nH]cnc2-c2ccc3ncc(-c4ccc(C(=O)OCC5CNC5)nc4)cc3c2)n1` [Compound 54, azetidin-3-ylmethyl 5-[6-[5-(6-methyl-2-pyridyl)-1H-imidazol-4-yl]-3-quinolyl]pyridine-2-carboxylate]: the Ki in assay [1] was 0.0398 to 0.316 nM. Moreover, in assay [2] (setting [3]), the IC50 was 200 to 1260 nM.
